Data published in article PMC3179854 (Journal of the American Chemical Society, 2011).
Where two headings read alike, the source gives them in different places.

What was measured:
[1] = test system: pooled human liver microsomes; assay type: in vitro ADME; conditions: substrates dextromethorphan (CYP2D6), diclofenac (CYP2C9), phenacetin (CYP1A2), testosterone (CYP3A4)
CYP3A4 [2] = molecular target: T1, CYP3A4 (Homo sapiens, UniProt P08684); conditions: read-out: IC50, literature value; cited from earlier work
T1 sequence (P08684 whole entry): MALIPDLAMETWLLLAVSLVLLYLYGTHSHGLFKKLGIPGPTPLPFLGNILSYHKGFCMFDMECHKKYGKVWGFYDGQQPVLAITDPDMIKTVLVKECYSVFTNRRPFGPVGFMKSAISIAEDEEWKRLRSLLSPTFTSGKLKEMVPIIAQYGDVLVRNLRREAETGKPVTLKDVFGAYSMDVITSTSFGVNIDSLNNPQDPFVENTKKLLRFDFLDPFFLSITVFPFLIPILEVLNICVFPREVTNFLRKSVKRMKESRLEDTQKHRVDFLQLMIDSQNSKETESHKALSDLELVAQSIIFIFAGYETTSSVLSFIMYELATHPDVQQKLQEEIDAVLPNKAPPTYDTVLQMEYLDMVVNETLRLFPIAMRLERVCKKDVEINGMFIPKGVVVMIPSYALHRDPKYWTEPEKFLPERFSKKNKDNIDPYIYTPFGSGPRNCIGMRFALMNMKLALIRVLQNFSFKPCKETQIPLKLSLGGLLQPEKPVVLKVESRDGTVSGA

CYP3A4 [3] = molecular target: T1, CYP3A4; assay: Inhibition of CYP3A4-catalyzed testosterone metabolism in Baculosomes
CYP1A2 [4] = molecular target: T2, CYP1A2 (Homo sapiens, UniProt P05177); conditions: CYP1A2, substrate conc. 500 μM
T2 sequence (P05177 1-516): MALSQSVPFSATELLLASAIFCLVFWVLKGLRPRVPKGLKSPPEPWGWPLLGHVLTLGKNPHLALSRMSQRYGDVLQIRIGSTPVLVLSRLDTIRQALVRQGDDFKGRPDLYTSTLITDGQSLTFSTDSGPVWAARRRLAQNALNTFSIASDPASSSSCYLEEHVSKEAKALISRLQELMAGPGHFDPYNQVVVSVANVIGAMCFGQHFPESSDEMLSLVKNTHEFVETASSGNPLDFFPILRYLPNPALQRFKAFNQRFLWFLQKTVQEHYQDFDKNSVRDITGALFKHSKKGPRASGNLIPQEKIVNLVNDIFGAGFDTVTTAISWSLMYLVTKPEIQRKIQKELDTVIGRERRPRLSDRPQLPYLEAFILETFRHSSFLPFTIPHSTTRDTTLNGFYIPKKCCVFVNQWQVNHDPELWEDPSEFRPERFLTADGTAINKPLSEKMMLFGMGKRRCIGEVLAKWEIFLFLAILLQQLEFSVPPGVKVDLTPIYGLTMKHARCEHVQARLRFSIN

CYP1A2 [5] = molecular target: T2, CYP1A2; conditions: CYP1A2, substrate conc. 500 μM; remark: listed apart in the source
CYP2D6 [6] = molecular target: T3, CYP2D6 (Homo sapiens, UniProt P10635); assay: MesaPlate metabolic stability; assay type: in vitro ADME
T3 sequence (P10635 whole entry): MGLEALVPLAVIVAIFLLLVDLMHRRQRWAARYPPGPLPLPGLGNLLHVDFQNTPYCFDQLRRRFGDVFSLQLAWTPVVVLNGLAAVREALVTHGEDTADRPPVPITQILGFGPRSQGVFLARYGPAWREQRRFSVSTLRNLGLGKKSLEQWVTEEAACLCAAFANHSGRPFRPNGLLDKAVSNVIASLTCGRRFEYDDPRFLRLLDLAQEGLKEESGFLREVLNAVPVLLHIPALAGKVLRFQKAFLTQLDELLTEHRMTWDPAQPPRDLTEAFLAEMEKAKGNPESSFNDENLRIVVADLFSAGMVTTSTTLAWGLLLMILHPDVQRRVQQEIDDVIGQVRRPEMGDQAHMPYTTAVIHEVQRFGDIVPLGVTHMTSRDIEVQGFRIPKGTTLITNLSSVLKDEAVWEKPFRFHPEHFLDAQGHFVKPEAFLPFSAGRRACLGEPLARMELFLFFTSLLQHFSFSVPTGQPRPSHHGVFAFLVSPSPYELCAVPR

CYP2D6 [7] = molecular target: T3, CYP2D6; assay: Metabolic stability measured with chromatography; assay type: in vitro ADME
CYP2C9 [8] = molecular target: T4, CYP2C9 (Homo sapiens, UniProt P11712)
T4 sequence (P11712 whole entry): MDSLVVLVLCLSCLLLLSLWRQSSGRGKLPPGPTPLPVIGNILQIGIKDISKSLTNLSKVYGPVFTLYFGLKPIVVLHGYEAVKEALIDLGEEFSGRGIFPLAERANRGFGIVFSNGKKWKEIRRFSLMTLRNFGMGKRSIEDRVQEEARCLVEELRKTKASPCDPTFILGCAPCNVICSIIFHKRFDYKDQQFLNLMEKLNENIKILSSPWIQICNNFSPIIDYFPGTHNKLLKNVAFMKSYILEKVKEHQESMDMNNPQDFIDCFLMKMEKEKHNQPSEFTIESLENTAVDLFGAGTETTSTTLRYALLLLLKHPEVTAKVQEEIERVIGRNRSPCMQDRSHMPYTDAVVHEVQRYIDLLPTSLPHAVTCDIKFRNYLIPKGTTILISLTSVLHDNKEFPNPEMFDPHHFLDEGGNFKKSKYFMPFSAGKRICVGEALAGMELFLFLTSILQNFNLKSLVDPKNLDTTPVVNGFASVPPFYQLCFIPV

CYP2C9 [9] = molecular target: T4, CYP2C9; assay: in vitro
CYP2C9 [10] = molecular target: T4, CYP2C9; conditions: cited from earlier work
CYP3A4 [11] = molecular target: T1, CYP3A4; assay: MesaPlate metabolic stability

In the case of `c1ccc(-n2ccnc2)cc1` [1-phenylimidazole], the “measured rate of P450 oxidation in the presence of inhibitor” value [1] is given as “much lower”, the IC50 (CYP3A4 [2]) is given as 2700 nM and the IC50 (CYP3A4 [3]) is given as 2390 ± 10 nM.

For `Cc1c[nH]c2ccccc12` [3-methylindole], the “−rRH (metabolic stability), MesaPlate” value (CYP1A2 [4]) was 15.8 ± 1.8 nmol/min/nmol P450 and the “−rRH (metabolic stability), Chromatography” value (“−rRH … Chromatography” for short) (CYP1A2 [5]) was 10.7 ± 0.8 nmol/min/nmol P450.

In the case of `CN(C)CCC=C1c2ccccc2CCc2ccccc21` [Amitriptyline], the “−rRH (metabolic stability), MesaPlate” value (CYP2D6 [6]; CYP2D6, substrate conc. 60 μM) is reported as 6.7 ± 0.8 nmol/min/nmol P450 and the “−rRH … Chromatography” value (CYP2D6 [7]; CYP2D6, substrate conc. 60 μM) is reported as 3.8 ± 0.4 nmol/min/nmol P450.

In the case of `O=C(O)Cc1ccccc1Nc1c(Cl)cccc1Cl` [Diclofenac], the “kcat (MesaPlate)” value (CYP2C9 [8]) is given as 0.183 ± 0.017 s⁻¹, the Km (CYP2C9 [9]) is given as 20 ± 7 µM and the Km (CYP2C9 [10]) is given as 5 µM. For the same compound, the “kcat (Literature)” value (CYP2C9 [10]) was 0.483 s⁻¹.

In the case of `COCCc1ccc(OCC(O)CNC(C)C)cc1` (stereo not drawn) [Metoprolol], the “−rRH (metabolic stability), MesaPlate” value (CYP2D6 [6]; CYP2D6, substrate conc. 100 μM) is reported as 12.2 ± 2.2 nmol/min/nmol P450 and the “−rRH … Chromatography” value (CYP2D6 [7]; CYP2D6, substrate conc. 100 μM) is reported as 9.8 ± 2.3 nmol/min/nmol P450.

With `C[C@]12CC[C@H]3[C@@H](CCC4=CC(=O)CC[C@@]43C)[C@@H]1CC[C@@H]2O` [Testosterone] the “kcat (MesaPlate)” value (CYP3A4 [11]; CYP3A4, Michaelis-Menten fit) was 1.97 ± 0.13 s⁻¹ and the Km (CYP3A4 [11]; human, Baculosomes with CYP3A4) was 31 ± 7 µM.
